Reference: paper PMC6353975, “Design and activity study of a melittin–thanatin hybrid peptide” (AMB Express, 2019)

Assays:
S. aureus [1] = test: In vitro antimicrobial experiments with the recombinant hybrid peptide; assay type: cell-based, Staphylococcus aureus; details: recombinant peptide from E. coli fusion expression after acid hydrolysis; not obtained pure
Source text: To expand the antimicrobial spectrum of thanatin and avoid the toxic effects of melittin, a hybrid antimicrobial peptide was designed according to a previous study (Blondelle and Houghten [1991]). Hemolysis was slightly affected by the removal of C-terminal amino acids of melittin, according to the previous study (Jahnsen et al. [2015]). Four alkaline amino acids (KRKR) are located at the C-terminal amino acids of melittin. The hybrid antimicrobial peptide that includes the full-length of thanatin and the C-terminal of melittin may reveal a stronger and safer antibacterial effect (Leonardo et al. [2012]). The hybrid antimicrobial peptide […]-AGP-[…] was designed using melittin’s C-terminal 15-amino acid mutant GLPL*[…] (L*wild type was A) as the N-terminus and thanatin as the C-terminus and by ligating with AGP to create a hybrid peptide that could inhibit S. aureus without hemolytic activity. The fusion expression of the hybrid peptide was carried out in Escherichia coli by using genetic engineering techniques, and the acid hydrolysis site AP was added to the N-terminus of the hybrid peptide. After the engineered bacteria were fermented, separated, acid-hydrolyzed, and purified, another proline residue was found on the N-terminus of the resulting peptide, that is, […]. […] However, pure hybrid peptide was not obtained due to problems associated with acid hydrolysis. […]

S. aureus [2] = details: ref Fehlbaum et al. [1996]; Mandard et al. [1998]; cited from earlier work
Source text: Thanatin, with a primary structure of […], is a type of antimicrobial peptide consisting of 21 amino acid residues. It is found in the insect Podisus maculiventris. […] It is a peptide consisting of 26 amino acids with a primary structure of […]. […] However, its clinical application is limited by its strong toxicity (mainly hemolytic activity), genotoxicity, and influence on gene expression (Gajski et al. [2016]; Wu et al. [2015]). To ...

[3] = thanatin data from the reference; ref Fehlbaum et al. [1996]; cited from earlier work
Source text: Table 1 Physicochemical properties of hybrid peptide | column: Isoelectric point (pI)

Row | Sequence | inhibition of growth of S. aureus (S. aureus [1]) | inhibition of S. aureus (S. aureus [2]) | Isoelectric point (pI) [3]
1 | PGLPLLISWIKRKRQQGSKKPVPIIYCNRRTGKCQRM [hybrid peptide expressed as fusion in Escherichia coli, acid-hydrolyzed, with another proline on the N-terminus; not obtained pure] | inhibited the growth of S. aureus |  | 
2 | GSKKPVPIIYCNRRTGKCQRM [Thanatin, thanatin, antimicrobial peptide of 21 amino acid residues found in the insect Podisus maculiventris] |  | does not inhibit S. aureus | 10.48
